# According to ChEMBL document CHEMBL5329212, “In situ click chemistry-based discovery of 1,2,3-triazole-derived diarylpyrimidines as novel HIV-1 NNRTIs by exploiting the tolerant region I in binding pocket” (Bioorg Med Chem, 2023):
# pEC50, pIC50: −log10 of the molar value.
# Tests used:
# [1] = target: Human immunodeficiency virus type 1 reverse transcriptase (Human immunodeficiency virus 1) (UniProt Q72547); assay: Inhibition of HIV-1 reverse transcriptase at 0.267 uM incubated for 1 hrs in presence of biotin-labeled dNTPs by ELISA assay relative to control
# [2] = target: Human immunodeficiency virus type 1 reverse transcriptase (Human immunodeficiency virus 1, UniProt Q72547); assay: Inhibition of HIV-1 reverse transcriptase incubated for 1 hrs in presence of biotin-labeled dNTPs by ELISA assay
# [3] = system: Human immunodeficiency virus 1; assay: Antiviral activity against wild type HIV-1 IIIB infected in human MT4 cells assessed as protection against virus-induced cytopathic effect measured after 5 days by MTT assay; assay type: functional, organism-based; settings: Human immunodeficiency virus 1, IIIB, MT4, 120 h
# [4] = system: Human immunodeficiency virus 1; assay: Antiviral activity against HIV-1 harboring RT L100I mutant infected in human MT4 cells assessed as protection against virus-induced cytopathic effect measured after 5 days by MTT assay; assay type: functional, organism-based; settings: Human immunodeficiency virus 1, MT4, 120 h
# [5] = system: Human immunodeficiency virus 1; assay: Antiviral activity against HIV-1 harboring RT K103N mutant infected in human MT4 cells assessed as protection against virus-induced cytopathic effect measured after 5 days by MTT assay; assay type: functional, organism-based; settings: Human immunodeficiency virus 1, MT4, 120 h
# [6] = system: Human immunodeficiency virus 1; assay: Antiviral activity against HIV-1 harboring RT Y181C mutant infected in human MT4 cells assessed as protection against virus-induced cytopathic effect measured after 5 days by MTT assay; assay type: functional, organism-based; settings: Human immunodeficiency virus 1, MT4, 120 h
# [7] = system: Human immunodeficiency virus 1; assay: Antiviral activity against HIV-1 harboring RT Y188L mutant infected in human MT4 cells assessed as protection against virus-induced cytopathic effect measured after 5 days by MTT assay; assay type: functional, organism-based; settings: Human immunodeficiency virus 1, MT4, 120 h
# [8] = system: Human immunodeficiency virus 1; assay: Antiviral activity against HIV-1 harboring RT E138K mutant infected in human MT4 cells assessed as protection against virus-induced cytopathic effect measured after 5 days by MTT assay; assay type: functional, organism-based; settings: Human immunodeficiency virus 1, MT4, 120 h
# [9] = system: Human immunodeficiency virus 1; assay: Antiviral activity against HIV-1 harboring RT F227L/V106A double mutant infected in human MT4 cells assessed as protection against virus-induced cytopathic effect measured after 5 days by MTT assay; assay type: functional, organism-based; settings: Human immunodeficiency virus 1, MT4, 120 h
# [10] = system: Human immunodeficiency virus 1; assay: Antiviral activity against HIV-1 harboring RT RES056 mutant infected in human MT4 cells assessed as protection against virus-induced cytopathic effect measured after 5 days by MTT assay; assay type: functional, organism-based; settings: Human immunodeficiency virus 1, MT4, 120 h
# [11] = Cytotoxicity against human MT4 cells assessed as reduction in cell viability measured after 5 days by MTT assay; assay type: toxicity, cell-based; settings: time 5 day
# [12] = Half life in Wistar rat at 2 mg/kg, iv measured upto 8 hrs by LC-MS/MS analysis; assay type: ADME, organism-based; settings: in vivo
# [13] = Aqueous solubility of the compound at pH 2 at 0.1 to 10 mg; assay type: physicochemical; settings: aqueous medium, dose 0.1-10 mg
# [14] = Aqueous solubility of the compound at pH 7.0 at 0.1 to 10 mg; assay type: physicochemical; settings: aqueous medium, dose 0.1-10 mg
# [15] = Aqueous solubility of the compound at pH 7.4 at 0.1 to 10 mg; assay type: physicochemical; settings: aqueous medium, dose 0.1-10 mg
half-life [12] [h],SMILES,inhibition [1] [%],pIC50 [2],pEC50 [3],pEC50 [4],pEC50 [5],pEC50 [6],pEC50 [7],pEC50 [8],pEC50 [9],pEC50 [10],CC50 at 120 h [11] [nM],solubility [13] [µg/mL],solubility [14] [µg/mL],solubility [15] [µg/mL]
,Cc1cc(C#N)cc(C)c1Oc1nc(Nc2ccc(-c3cn(Cc4ccc(B(O)O)cc4)nn3)cc2)nc2ccsc12,50.8,6.38,6.80,5.61,6.39,5.31,5.50,6.19,5.39,≤ 5.26,13400,,,
,Cc1cc(C#N)cc(C)c1Oc1nc(Nc2ccc(C#N)cc2)nc(N)c1Br [ETRAVIRINE],56.4,,,8.00,8.40,,,7.70,7.52,7.15,> 461000,,,
2,Cc1cc(C#N)cc(C)c1Oc1nc(NC2CCN(Cc3ccc(S(N)(=O)=O)cc3)CC2)nc2ncsc12,,,,,,,,,,,,,,
,Cc1cc(C#N)cc(C)c1Oc1nc(Nc2ccc(-c3cn(S(=O)(=O)n4ccnc4)nn3)cc2)nc2ccsc12,66.5,7.52,8.00,7.10,8.00,6.80,6.60,7.52,6.59,≤ 5.25,140000,102,64.7,44.2
,Cc1cc(C#N)cc(C)c1Oc1nc(Nc2ccc(-c3cn(Cc4ccc(C(F)(F)F)cc4)nn3)cc2)nc2ccsc12,74.2,6.35,6.72,6.08,6.48,5.62,5.51,6.16,5.05,4.59,88200,,,
,Cc1cc(C#N)cc(C)c1Oc1nc(Nc2ccc(-c3cn(Cc4ccc(C(F)(F)F)cc4F)nn3)cc2)nc2ccsc12,63.6,5.96,6.09,5.63,5.88,5.43,4.73,5.61,4.66,4.46,129000,,,
1.6,Cc1cc(C#N)cc(C)c1Oc1nc(NC2CCN(Cc3ccc(S(N)(=O)=O)cc3)CC2)nc2ccsc12,39.1,,,,,,,,,,,,,
,Cc1cc(C#N)cc(C)c1Oc1nc(Nc2ccc(-c3cn(Cc4ccc(C(N)=O)cc4)nn3)cc2)nc2ccsc12,39.5,6.60,7.52,5.83,7.10,5.16,4.92,6.82,5.15,< 3.66,> 218000,,,
,COC(=O)c1cccc(-n2cc(-c3ccc(Nc4nc(Oc5c(C)cc(C#N)cc5C)c5sccc5n4)cc3)nn2)c1,42.4,6.19,5.90,5.13,5.76,4.62,4.23,5.30,4.63,≤ 3.81,> 218000,,,
,CCOC(=O)c1ccc(Cn2cc(-c3ccc(Nc4nc(Oc5c(C)cc(C#N)cc5C)c5sccc5n4)cc3)nn2)cc1,60,6.37,6.27,4.46,6.07,3.92,< 3.68,6.11,< 3.68,< 3.68,> 208000,,,
,Cc1cc(C#N)cc(C)c1Oc1nc(Nc2ccc(-c3cn(Cc4ccc(S(N)(=O)=O)cc4)nn3)cc2)nc2ccsc12,46.3,6.72,7.52,6.00,7.40,5.58,5.49,7.30,5.44,< 3.69,> 205000,,,
,O=C1Nc2ccc(Cl)cc2[C@@](C#CC2CC2)(C(F)(F)F)O1 [EFAVIRENZ],,,,7.10,6.89,8.10,6.37,,6.30,6.37,> 635000,,,
,Cc1cc(C#N)cc(C)c1Oc1nc(Nc2ccc(-c3cn(CCN4C(=O)c5ccccc5C4=O)nn3)cc2)nc2ccsc12,46.2,5.47,5.73,5.49,5.68,4.34,≤ 3.80,4.86,3.91,< 3.69,> 204000,,,
